According to paper PMC9249808, “A novel lipidic peptide with potential to promote balanced effector-regulatory T cell responses” (Scientific Reports, 2022):

Experiments:
[1] = system: Lck; assay: Kinase profiling, Lck; assay type: biochemical; details: Eurofins KinaseProfiler, [γ-33P-ATP] scintillation, 0.003-10 uM, 2% DMSO, no pre-incubation, Fig. 6c, 6e
Description: Non-cell-based kinase profiling assays were performed by Eurofins (France). All compounds were prepared to 50 × final assay concentration in 100% DMSO. This working stock of the compound was added to assay wells as the first component in the reaction, followed by the remaining components as detailed in the specific assay protocols below. In the standard KinaseProfiler service, there was no pre-incubation step between the compound and the kinase prior to initiation of the reaction. Control wells contained all components of the reaction, except the compound of interest; however, DMSO (at a final concentration of 2%) was included in these wells to control for solvent effects. […] The reference inhibitors for each kinase are indicated in the methods for each kinase assay. […] Kinase activities were assessed in the presence of compounds at a concentration range of 0.003 -10 uM and the following kinases were tested: c-Src, Lck, Jak1, Jak2, Tyk2, CaMKIV and HPK1 (MAP4K1). Reactions between IK14004, substrates and MgAcetate/[γ^33P-ATP] mixes for each respective kinase were stopped by the addition of phosphoric acid and reaction mixtures spotted on P30 filtermats for scintillation according to the detailed methods available from Eurofins. The activities of Lck and c-Src were also assessed in the presence of the unconjugated components of IK14004, i.e., […] (IK14000) and the dodecanoic acid moiety [(2)Adod]4 (IK00041) and a lipidic peptide containing substituted amino acid residues (IK14DE04).

[2] = system: Lck-WT protein; assay: Lck binding assay (non-cell-based ELISA); details: peptide coated 10 µg/mL in PBS, 4 °C 20 h; Lck-WT (mCherry, c-myc tag) 2 h room temperature, HRP anti myc, 450 nm; duplicate experiments, 3 technical replicates; negative control PBS; Fig. 6b
Description: Lck wild-type (Lck-WT) was prepared in CHO cells. The plasmid for the expression of Lck-WT protein was kindly provided by the research laboratory of Professor Katarina Gaus. The plasmid was encoded for mammalian cell expression of the Lck-WT protein with a C-terminal mCherry reporter. A twin-strep tag was incorporated at the N-terminal of the Lck-WT for purification, and a c-myc epitope tag was placed at the C-terminal, after mCherry for detection of protein expression. A midiprep DNA preparation of the plasmid was performed using the Macherey–Nagel Midi kit as per manufacturer’s instructions. For transient transfections plasmid DNA was transfected into CHO-S cells using 2 μg DNA mL^−1 cells at a concentration of 3 million cells mL^−1. DNA was complexed with polyethylenimine-Pro (PolyPlus) in Opti-Pro serum free medium (Life Technologies) at a DNA (μg) to PEI (μL) ratio of 1:4 (w:v) for 15 min prior to transfecting suspension adapted CHO cells. […]
The peptides, IK14004 and IK14000, were reconstituted into PBS at 1 mg/mL. […] 100 µL of 2 M sulphuric acid was added to stop the reaction and the absorbance values recorded at a wavelength of 450 nm using SpectraMax (Molecular Devices).

Sequence: RSKAKNPLYR [IK14000]
- Lck activity [1]: neither IK14000 nor IK00041 had an effect
- binding to Lck [2]: no different to the negative control
